Activity calls are given as the source filed them.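 The calls were made as follows: active = GFP ratio vs DMSO below 0.65 in a strain, using the primary screen cutoff set for that strain's protein target; inactive = the rest.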
Columns and labels:
Assay in all cases: TORC1 pathway position of GFP reporter effects – S. cerevisiae, TORC1 bypass vs wild-type strains, mechanism study for yeast TOR pathway modulator project (AID 504479)
Conditions in all cases: fluorescence ratio vs DMSO, at 10 µM
BY4741 = system: BY4741
YBR084C-A = system: YBR084C-A
YCL025C = system: YCL025C
YCR005C = system: YCR005C
YKL103C = system: YKL103C
YNL142W = system: YNL142W
[1] = RPL19A-GFP in TORC1 bypass strain, stronger effect = lower value
[2] = AGP1-GFP in TORC1 bypass strain, stronger effect = higher value
[3] = CIT2-GFP in TORC1 bypass strain, stronger effect = higher value
[4] = LAP4-GFP in TORC1 bypass strain, stronger effect = higher value
[5] = MEP2-GFP in TORC1 bypass strain, stronger effect = higher value

Row | SMILES | GFP ratio vs DMSO (BY4741) | GFP ratio vs DMSO (YBR084C-A; [1]) | GFP ratio vs DMSO (YBR084C-A) | GFP ratio vs DMSO (YCL025C; [2]) | GFP ratio vs DMSO (YCL025C) | GFP ratio vs DMSO (YCR005C; [3]) | GFP ratio vs DMSO (YCR005C) | GFP ratio vs DMSO (YKL103C; [4]) | GFP ratio vs DMSO (YKL103C) | GFP ratio vs DMSO (YNL142W; [5]) | GFP ratio vs DMSO (YNL142W)
1 | O=C(OCn1ncc(Br)c(Br)c1=O)c1c(F)cccc1F | 0.824 (inactive) | 1.05 | 1 (inactive) | 0.715 | 0.903 (inactive) | 0.891 | 1.02 (inactive) | 1.37 | 1.86 | 0.876 | 0.897 (inactive)
2 | O=C(Oc1c(Cl)cc(Cl)c2cccnc12)c1ccco1 | 1.18 (inactive) | 1.29 | 1.31 (inactive) | 0.699 | 0.897 (inactive) | 0.81 | 0.971 (inactive) | 1.19 | 1.78 | 0.959 | 1.07 (inactive)
3 | CCc1ccc(OCC(=O)NNC(=S)NC(=O)C2CC2)c(Br)c1 | 1.41 (inactive) | 1.03 | 1.15 (inactive) | 0.819 | 1.1 (inactive) | 0.796 | 0.882 (inactive) | 1.3 | 2.76 | 1.13 | 1.23 (inactive)
4 | COc1ccc([N+](=O)[O-])c(S(=O)(=O)c2ccc(Cl)cc2)n1 | 1.04 (inactive) | 0.937 | 0.829 (inactive) | 0.905 | 1.18 (inactive) | 0.761 | 0.9 (inactive) | 1.92 | 2.84 | 1.01 | 1.24 (inactive)
5 | CO[C@H]1C[C@@H]2CC[C@@H](C)[C@@](O)(O2)C(=O)C(=O)N2CCCC[C@H]2C(=O)O[C@H]([C@H](C)C[C@@H]2CC[C@@H](O)[C@H](OC)C2)CC(=O)[C@H](C)/C=C(\C)[C@@H](O)[C@@H](OC)C(=O)[C@H](C)C[C@H](C)/C=C/C=C/C=C/1C | 1.1 (inactive) | 0.67 | 0.597 | 1.51 | 2.28 | 2.4 | 3.29 | 1.17 | 2.52 | 1.01 | 12.5
6 | O=C1ON=C(c2ccccc2)/C1=C/c1ccco1 | 0.912 (inactive) | 0.972 | 0.965 (inactive) | 0.65 | 0.853 (inactive) | 0.825 | 1.34 (inactive) | 1.17 | 1.64 | 1.01 | 1.03 (inactive)
7 | COc1ccc(C(=O)NNC(=S)NC(=O)/C=C/c2cccs2)cc1 | 1.24 (inactive) | 1.04 | 1.27 (inactive) | 0.916 | 1.18 (inactive) | 0.971 | 1.2 (inactive) | 1.16 | 1.72 | 1 | 1.15 (inactive)
8 | O=[N+]([O-])c1cc(S(=O)(=O)C(F)(F)F)ccc1Sc1nc2ccccc2s1 | 0.811 (inactive) | 0.993 | 0.985 (inactive) | 0.722 | 0.876 (inactive) | 0.848 | 0.985 (inactive) | 1.22 | 1.71 | 0.92 | 0.887 (inactive)
9 | CCCOc1ccc(C(=O)NNC(=S)NC(=O)CC)cc1 | 1.32 (inactive) | 1.36 | 1.33 (inactive) | 0.969 | 1.17 (inactive) | 0.905 | 0.994 (inactive) | 1.92 | 2.96 | 1.3 | 1.24 (inactive)
10 | O=C(OCn1ncc(Br)c(Br)c1=O)c1ccc(F)cc1 | 0.853 (inactive) | 1.06 | 1.03 (inactive) | 0.766 | 1.02 (inactive) | 0.803 | 1.06 (inactive) | 1.67 | 2.44 | 0.918 | 1.03 (inactive)
